Consider two compounds from publication PMC11476552, “Synthesis and Preliminary Studies for In Vitro Biological Activity of Two New Water-Soluble Bis(thio)carbohydrazones and Their Copper(II) and Zinc(II) Complexes” (International Journal of Molecular Sciences, 2024).

Like-named read-outs stand apart in the source and are kept apart here.

Assay type in all cases: physicochemical
A short description of data set [1]: Solubility of the ligands and complexes in water. The following applies: for solubility: r.t. An excerpt:
Elemental (see experimental section) and TGA (Figure S5) analyses confirmed the formulae Na2H4L^1∙5.5H2O (bis-TCH) and Na2H4L^2∙5H2O (bis-CH).

Data set [2] is described as follows: Proton dissociation constants by pH potentiometry. The following applies: aqueous solution, T = 298.2 K, I = 0.1 M KCl. The source says: Between pH = 3.98 and 6.00, the solutions were colourless with absorption maxima at 237 and 320 nm. From pH = 6.49, the solution was pale green, and the colour became more intense until pH = 10.00; the colour change was accompanied by the appearance of bands at 253 and 393 nm, with a shoulder at 445 nm. […] This value is similar to that reported for the deprotonation of the phenolic moiety of sodium 5-sulfonate-salicylaldehyde thiosemicarbazones. The values of pKa1 and pKa2, associated with the proton dissociation of the sulfonic groups, are expected to have much lower values (below 3) and could not be determined from these experiments. Potentiometric titrations were performed in an attempt to determine the value of the pKa of the hydrazidic NH protons (pKa5 and pKa6) and, possibly, those of the protonated sulfonate groups. Effectively, potentiometric data allowed us to determine the pKa5 value, along with pKa3 and pKa4 (Table 2). The values of pKa3 and pKa4 obtained by potentiometry are consistent with those obtained by spectrophotometric titrations.
Similarly, the proton dissociation constants of bis-CH were studied spectrophotometrically in aqueous solution between pH = 3.98 and 10.00 (Figure 1B). […] The spectrophotometric data were processed by means of HypSpec2014 software, leading to pKa3 = 7.34(1) and pKa4 = 8.58(1), which were assigned to the deprotonation of the two phenolic OH groups (Table 2). As for bis-TCH, the single-site pKa value of the phenolic groups can be estimated as the average pKa (7.96). Additionally, to complete the analysis, we carried out potentiometric titrations of bis-CH starting from a very acidic pH. […] Importantly, no dissociation of the hydrazidic NH groups was observed, a behaviour consistent with that reported in the literature.
Glass-electrode potentiometric titrations of bis-TCH and bis-CH were carried out in aqueous solution at T = 298.2 ± 0.1 K and I = 0.1 M (KCl) under a stream of N2, using 1.5 mL samples. The potentiometric titrations were carried out using an automatic Metrohm OMNIS titrator provided with a Metrohm semi-micro glass electrode. The system was controlled by a PC to monitor the attainment of the equilibrium through pH measurements vs. time and the addition of titrant aliquots. The Metrohm combined glass electrode was calibrated in terms of [H^+] (hereafter, pH = −log[H^+]) by titrating HCl solutions with KOH solutions previously standardized against potassium hydrogen phthalate. […] The protonation constants of Na2H4L^1·5.5 H2O and Na2H4L^2·5 H2O were determined by alkalimetric titration of 3 samples (3.0–4.5 mM). All samples were prepared by weight of the pure solids and dissolved in freshly prepared, N2-fluxed, double-distilled water. Potentiometric data treatment was carried out using Hyperquad2013 software. Distribution diagrams were obtained using Hyss2009 software.

Data set [3] in a line: Zn(II) complex formation equilibria, spectrophotometric titration at pH 7.4. The following applies: for Log β([Zn2L]) / Log β([ZnL]): conditional formation constant, aqueous 25 mM HEPES buffer, pH 7.4, 25 °C. An excerpt:
The best fit was obtained using a speciation model that consists of the sequential formation of a monometallic [ZnL] and a bimetallic [Zn2L] species. In fact, two families of spectra were observed, according to the presence in solution of two complex species and the free ligand. The first family of spectra (Zn/L = 0–1) (Figure S25) is characterized by a decrease in intensity for the bands of the free ligand at 239, 315, and 450 nm, and the appearance of bands at 251 and 394 nm. There are four isosbestic points at 245, 280, 371, and 429 nm. The second family of spectra (Zn/L = 1–2) (Figure S26) presents redshift and increase in absorbance of the band at 251 nm, the disappearance of the band at 349 nm, and redshift with decrease of absorbance of the band at 394 nm. […] The log β values for the formation of Zn(II) complexes with Na2H4L^1 · 5.5 H2O can be estimated (Table 4), and a representative distribution diagram is reported in Figure S27.
The spectra are characterized by four bands at ca. 238, 255, 305, and 371 nm, with those at 255 and 371 nm increasing in intensity with the addition of metal ions. The presence of these separated absorption bands led to the observation of three apparent isosbestic points at 243, 276, and 345 nm. Analogously to the Zn(II)/bis-thiocarbohydrazone system, the best fit was obtained using a speciation model that consists of the sequential formation of a monometallic [ZnL] and a bimetallic [Zn2L] species. In Figure 8, the absorbance values at 307 nm as a function of the equivalents of added Zn(II) are reported. The absorbance trend presents two almost linear regions between 0 and 1 eq. of Zn(II) and between 1 and 2 eq., respectively. This is, in fact, consistent with the sequential formation of two species with Zn:L ratios of 1:1 and 2:1, respectively. […] This behaviour is, perhaps, to be expected, taking into account the softer nature of the thiocarbohydrazonic group.
Samples used for the study of protonation equilibria of the ligands were prepared as follows. […] For each solution, the absorption spectrum was collected in the 220–600 nm range at 298.2 K. The spectral data collection was carried out immediately after the preparation of the samples and repeated after 3 and 10 min for all the samples at different pH values to check the stability of the ligand. […] The complex formation equilibria at pH 2.5 or 7.4 of bis-TCH and bis-CH with Cu(II) and Zn(II) ions were studied by direct spectrophotometric titrations of solutions of the ligands with the metal ions, and the samples were prepared as follows. Appropriate aliquots of the stock solutions of the ligands were diluted in a quartz cuvette of 1 cm path length using HEPES buffer (pH 7.4) or by adding HCl aqueous solution (pH 2.5) to obtain ca. 17 µM ligand solutions in a total volume of 2.6 mL. The obtained ligand solutions were titrated with Cu(II) or Zn(II) titrant solutions (ca. 442 µM) up to a metal/ligand ratio of 3 for the studies at pH 7.4 and up to a Cu(II):ligand ratio of 5 (for Na2H4L^1 · 5.5 H2O) and 7 (for Na2H4L^2 · 5 H2O) for the studies at pH 2.5. […]
The logarithms of the apparent stability constants were calculated from the spectral dataset using HypSpec2014 software. […] All equilibria were studied at fixed pH, and therefore the determined log β values are logarithms of conditional formation constants. […] Speciation diagrams were calculated using the Hyss2009 software. […]

The term solubility denotes how much of the substance goes into solution per volume.

In the case of `COc1cc(S(=O)(=O)[O-])cc(/C=N/NC(=O)N/N=C/c2cc(S(=O)(=O)[O-])cc(OC)c2O)c1O.[Na+].[Na+]` [bis-CH, Bis-(sodium 3-methoxy-5-sulfonate-salicylaldehyde)-carbohydrazone], in data set [1], the “solubility in water (in words)” value is recorded as “very soluble in water” and the solubility was approximately 23 mg/mL. In data set [2] (read-out: pKa3), the pKa stood at 7.77. In data set [2] (read-out: pKa4), the pKa worked out at 8.45. Further, the pKa in data set [2] (second sulfonic group, read-out: pKa2) worked out at 1.7. In data set [3], the “Log β([Zn2L])” value is 13.61(4) and the “Log β([ZnL])” value is recorded as 7.08(3).

Take `COc1cc(S(=O)(=O)[O-])cc(/C=N/NC(=S)N/N=C/c2cc(S(=O)(=O)[O-])cc(OC)c2O)c1O.[Na+].[Na+]` [bis-TCH, Bis-(sodium 3-methoxy-5-sulfonate-salicylaldehyde)-thiocarbohydrazone]: in data set [1], the “solubility in water (in words)” value is listed as “very soluble in water” and the solubility is approximately 10 mg/mL. Moreover, in data set [2] (hydrazidic NH, read-out: pKa5), the pKa was determined as 11.3. Further, the pKa in data set [2] (read-out: pKa3) was found to be 7.08. Further, the pKa in data set [2] (read-out: pKa4) is 8.54. Also, in data set [3], the “Log β([Zn2L])” value is 15.29(10) and the “Log β([ZnL])” value is 8.40(6). Also, the “higher stability of Zn(II) complexes versus Na2H4L^2 · 5 H2O (difference in log β, both species)” value in data set [3] (pH 7.4, [ZnL] and [Zn2L]) is “ca. 1.5 log units”.
